The values that follow come from patent US10071086B2, “1H-pyrazolo[3,4-b]pyridines and therapeutic uses thereof” (Samumed, LLC, priority 2012, dated 2018).

For the test, the system named is Wnt pathway. Kind of test: Wnt activity reporter assay (SP5 promoter-luciferase in SW480 cells). Format: cell-based. To be noted: Homo sapiens, SP5 promoter firefly luciferase reporter, read-out: Wnt inhibition. The source says:
The above synthesized compounds were screened using the assay procedure for Wnt activity described below.
Reporter cell lines can be generated by stably transducing cells of cancer cell lines (e.g., colon cancer) with a lentiviral construct that include a wnt-responsive promoter driving expression of the firefly luciferase gene.
Lentiviral constructs can be made in which the SP5 promoter, a promoter having eight TCF/LEF binding sites derived from the SP5 promoter, is linked upstream of the firefly luciferase gene. The lentiviral constructs can also include a hygromycin resistance gene as a selectable marker. The SP5 promoter construct can be used to transduce SW480 cells, a colon cancer cell line having a mutated APC gene that generates a truncated APC protein, leading to de-regulated accumulation of β-catenin.
Cultured SW480 cells bearing a reporter construct can be distributed at approximately 10,000 cells per well into 96 well or 384 well plates. Compounds from a small molecule compound library can then be added to the wells in half-log dilutions using a ten micromolar top concentration. A series of control wells for each cell type receive only buffer and compound solvent. Twenty-four to forty hours after the addition of compound, reporter activity for luciferase can be assayed, for example, by addition of the BrightGlo luminescence reagent (Promega) and the Victor3 plate reader (Perkin Elmer). Readings can be normalized to DMSO only treated cells, and normalized activities can then be used in the IC50 calculations.
In general terms: Reporter assays use an easily measured gene product as a stand-in for the process of interest.
In the case of `O=C(Nc1cncc(-c2cnc3[nH]nc(-c4nc5c(-c6cccc(F)c6)cccc5[nH]4)c3c2)c1)C1CCCCC1` [Compound 561, N-(5-(3-(4-(3-Fluorophenyl)-1H-benzo[d]imidazol-2-yl)-1H-pyrazolo[3,4-b]pyridin-5-yl)pyridin-3-yl)cyclohexanecarboxamide], the IC50 is 143 nM.

For the molecule `O=C(Nc1cncc(-c2cnc3[nH]nc(-c4nc5c(-c6ccc(F)cc6)cccc5[nH]4)c3c2)c1)c1ccccc1` [Compound 573, N-(5-(3-(4-(4-Fluorophenyl)-1H-benzo[d]imidazol-2-yl)-1H-pyrazolo[3,4-b]pyridin-5-yl)pyridin-3-yl)benzamide], the IC50 came to 82 nM.

`O=C(Nc1cncc(-c2cnc3[nH]nc(-c4nc5c(-c6ccc(F)cc6)cccc5[nH]4)c3c2)c1)C1CC1` [Compound 581, N-(5-(3-(4-(4-Fluorophenyl)-1H-benzo[d]imidazol-2-yl)-1H-pyrazolo[3,4-b]pyridin-5-yl)pyridin-3-yl)cyclopropanecarboxamide]: the IC50 came out at 48 nM.

Turning to `Fc1ccc(-c2cccc3[nH]c(-c4n[nH]c5ncc(-c6cncc(CNCC7CCCC7)c6)cc45)nc23)cc1` [Compound 586, 1-Cyclopentyl-N-((5-(3-(4-(4-fluorophenyl)-1H-benzo[d]imidazol-2-yl)-1H-pyrazolo[3,4-b]pyridin-5-yl)pyridin-3-yl)methyl)methanamine], the IC50 was 420 nM.

For `Fc1ccccc1-c1cccc2[nH]c(-c3n[nH]c4ncc(-c5cccnc5)cc34)nc12` [Compound 590, 3-(4-(2-Fluorophenyl)-1H-benzo[d]imidazol-2-yl)-5-(pyridin-3-yl)-1H-pyrazolo[3,4-b]pyridine], the IC50 worked out at 20 nM.

On to `CC(C)(C)C(=O)Nc1cncc(-c2cnc3[nH]nc(-c4nc5c(-c6ccccc6F)cccc5[nH]4)c3c2)c1` [Compound 594, N-(5-(3-(4-(2-Fluorophenyl)-1H-benzo[d]imidazol-2-yl)-1H-pyrazolo[3,4-b]pyridin-5-yl)pyridin-3-yl)pivalamide], for which the IC50 worked out at 120 nM.

For the molecule `O=C(Cc1ccccc1)Nc1cncc(-c2cnc3[nH]nc(-c4nc5c(-c6ccccc6F)cccc5[nH]4)c3c2)c1` [Compound 595, N-(5-(3-(4-(2-Fluorophenyl)-1H-benzo[d]imidazol-2-yl)-1H-pyrazolo[3,4-b]pyridin-5-yl)pyridin-3-yl)-2-phenylacetamide], the IC50 was found to be 354 nM.

Regarding `Fc1ccccc1-c1cccc2[nH]c(-c3n[nH]c4ncc(-c5cncc(CN6CCCC6)c5)cc34)nc12` [Compound 599, 3-(4-(2-Fluorophenyl)-1H-benzo[d]imidazol-2-yl)-5-(5-(pyrrolidin-1-ylmethyl)pyridin-3-yl)-1H-pyrazolo[3,4-b]pyridine], the IC50 was 220 nM.

Consider `CCCC(=O)Nc1cncc(-c2cnc3[nH]nc(-c4nc5c(-c6ccccc6F)cccc5[nH]4)c3c2)c1` [Compound 602, N-(5-(3-(4-(2-Fluorophenyl)-1H-benzo[d]imidazol-2-yl)-1H-pyrazolo[3,4-b]pyridin-5-yl)pyridin-3-yl)butyramide], for which the IC50 amounted to 18 nM.

Take `O=C(Nc1cncc(-c2cnc3[nH]nc(-c4nc5c(-c6ccccc6F)cccc5[nH]4)c3c2)c1)C1CCC1` [Compound 605, N-(5-(3-(4-(2-Fluorophenyl)-1H-benzo[d]imidazol-2-yl)-1H-pyrazolo[3,4-b]pyridin-5-yl)pyridin-3-yl)cyclobutanecarboxamide]: the IC50 came to 18 nM.

Regarding `CN(C)c1cncc(-c2cnc3[nH]nc(-c4nc5c(-c6cccnc6)cccc5[nH]4)c3c2)c1` [Compound 616, N,N-Dimethyl-5-(3-(4-(pyridin-3-yl)-1H-benzo[d]imidazol-2-yl)-1H-pyrazolo[3,4-b]pyridin-5-yl)pyridin-3-amine], the IC50 was found to be 1410 nM.

Consider `CN(C)Cc1cncc(-c2cnc3[nH]nc(-c4nc5c(-c6cccnc6)cccc5[nH]4)c3c2)c1` [Compound 621, N,N-Dimethyl-1-(5-(3-(4-(pyridin-3-yl)-1H-benzo[d]imidazol-2-yl)-1H-pyrazolo[3,4-b]pyridin-5-yl)pyridin-3-yl)methanamine], for which the IC50 came to 36 nM.

With `Nc1cncc(-c2cnc3[nH]nc(-c4nc5c(-c6ccncc6)cccc5[nH]4)c3c2)c1` [Compound 635, 5-(3-(4-(Pyridin-4-yl)-1H-benzo[d]imidazol-2-yl)-1H-pyrazolo[3,4-b]pyridin-5-yl)pyridin-3-amine], the IC50 stood at 34 nM.

Take `Cc1ccncc1-c1cnc2[nH]nc(-c3nc4c(-c5ccncc5)cccc4[nH]3)c2c1` [Compound 637, 5-(4-Methylpyridin-3-yl)-3-(4-(pyridin-4-yl)-1H-benzo[d]imidazol-2-yl)-1H-pyrazolo[3,4-b]pyridine]: the IC50 was 110 nM.

On to `CC(C)Nc1cncc(-c2cnc3[nH]nc(-c4nc5c(-c6ccncc6)cccc5[nH]4)c3c2)c1` [Compound 643, N-Isopropyl-5-(3-(4-(pyridin-4-yl)-1H-benzo[d]imidazol-2-yl)-1H-pyrazolo[3,4-b]pyridin-5-yl)pyridin-3-amine], for which the IC50 is 30 nM.

As to `CC(C)(C)CC(=O)Nc1cncc(-c2cnc3[nH]nc(-c4nc5c(-c6ccncc6)cccc5[nH]4)c3c2)c1` [Compound 647, 3,3-Dimethyl-N-(5-(3-(4-(pyridin-4-yl)-1H-benzo[d]imidazol-2-yl)-1H-pyrazolo[3,4-b]pyridin-5-yl)pyridin-3-yl)butanamide], the IC50 is 1520 nM.

In the case of `c1ccc(CNCc2cncc(-c3cnc4[nH]nc(-c5nc6c(-c7ccncc7)cccc6[nH]5)c4c3)c2)cc1` [Compound 654, N-Benzyl-1-(5-(3-(4-(pyridin-4-yl)-1H-benzo[d]imidazol-2-yl)-1H-pyrazolo[3,4-b]pyridin-5-yl)pyridin-3-yl)methanamine], the IC50 is 1500 nM.

Take `FC1(F)CCN(Cc2cncc(-c3cnc4[nH]nc(-c5nc6c(-c7ccccn7)cccc6[nH]5)c4c3)c2)C1` [Compound 680, 5-(5-((3,3-Difluoropyrrolidin-1-yl)methyl)pyridin-3-yl)-3-(4-(pyridin-2-yl)-1H-benzo[d]imidazol-2-yl)-1H-pyrazolo[3,4-b]pyridine]: the IC50 came out at 170 nM.

On to `O=C(Nc1cncc(-c2cnc3[nH]nc(-c4nc5c(N6CCCCC6)cccc5[nH]4)c3c2)c1)c1ccccc1` [Compound 691, N-(5-(3-(4-(Piperidin-1-yl)-1H-benzo[d]imidazol-2-yl)-1H-pyrazolo[3,4-b]pyridin-5-yl)pyridin-3-yl)benzamide], for which the IC50 was 187 nM.

Consider `CCCCC(=O)Nc1cncc(-c2cnc3[nH]nc(-c4nc5c(N6CCCCC6)cccc5[nH]4)c3c2)c1` [Compound 698, N-(5-(3-(4-(Piperidin-1-yl)-1H-benzo[d]imidazol-2-yl)-1H-pyrazolo[3,4-b]pyridin-5-yl)pyridin-3-yl)pentanamide], for which the IC50 was 300 nM.

In the case of `O=C(Nc1cncc(-c2cnc3[nH]nc(-c4nc5c(N6CCCCC6)cccc5[nH]4)c3c2)c1)C1CCCC1` [Compound 701, N-(5-(3-(4-(Piperidin-1-yl)-1H-benzo[d]imidazol-2-yl)-1H-pyrazolo[3,4-b]pyridin-5-yl)pyridin-3-yl)cyclopentanecarboxamide], the IC50 stood at 625 nM.

As to `c1cc(N2CCCCC2)c2nc(-c3n[nH]c4ncc(-c5cncc(CNCC6CCCC6)c5)cc34)[nH]c2c1` [Compound 704, 1-Cyclopentyl-N-((5-(3-(4-(piperidin-1-yl)-1H-benzo[d]imidazol-2-yl)-1H-pyrazolo[3,4-b]pyridin-5-yl)pyridin-3-yl)methyl)methanamine], the IC50 came to 810 nM.
